From patent US20130123355A1, “Fatty acids and metal ions compositions and uses thereof” (priority 2011, published 2013)

Legend:
Sprague-Dawley rats = assay: Forced Swim Test; format: in vivo; settings: diet
Description: Sprague-Dawley rats are fed diet supplemented with Mg-DHA, Mg Citrate, or DHA. […] Various established parameters of antidepressant activity including reduced immobility time, increased swimming, and increased climbing behavior are quantitated to assess the antidepressant activity.
Sprague-Dawley rats are fed diet supplemented with Mg-DHA-LysoPC, Mg Citrate, or DHA-lysoPC. […] Various established parameters of antidepressant activity including reduced immobility time, increased swimming, and increased climbing behavior are quantitated to assess the antidepressant activity.
Sprague-Dawley rats are fed diet supplemented with Mg-EPA, Mg Citrate, or EPA. […] Various established parameters of antidepressant activity including reduced immobility time, increased swimming, and increased climbing behavior are quantitated to assess the antidepressant activity.
(§1) Sprague-Dawley rats are fed diet supplemented with Zn-DHA, Zinc gluconate, or DHA. On Zn-DHA or Zinc gluconate supplemented diet, rats consume about 1 mg/kg body weight/day of elemental zinc, on a feeding schedule so as to maintain 85% of its free-feeding weight. […] Various established parameters of antidepressant activity including reduced immobility time, increased swimming, and increased climbing behavior are quantitated to assess the antidepressant activity.
as §1, with “Zn-DHA-lysoPC, zinc” for “Zn-DHA, Zinc”, “Zn-DHA-lysoPC” for “Zn-DHA”, “zinc” for “Zinc”
as §1, with “Zn-EPA, zinc” for “Zn-DHA, Zinc”, “EPA.” for “DHA.”, “Zn-EPA” for “Zn-DHA”, “zinc” for “Zinc”
Sprague-Dawley rats are fed diet supplemented with Li-DHA, lithium carbonate, or DHA. […] Various established parameters of antidepressant activity including reduced immobility time, increased swimming, and increased climbing behavior are quantitated to assess the antidepressant activity.
Sprague-Dawley rats are fed diet supplemented with Li-DHA-lysoPC, lithium carbonate, or DHA. […] Various established parameters of antidepressant activity including reduced immobility time, increased swimming, and increased climbing behavior are quantitated to assess the antidepressant activity.
Sprague-Dawley rats are fed diet supplemented with Li-EPA, lithium carbonate, or EPA. […] Various established parameters of antidepressant activity including reduced immobility time, increased swimming, and increased climbing behavior are quantitated to assess the antidepressant activity.

rats = assay: novel-object-location (NOL) tests; format: in vivo; settings: diet
Procedure: Mg-DHA composition is provided as supplement in standard rat feed. On an average, rats consume about 50 mg/Kg/day of elemental Mg, on a feeding schedule so as to maintain 85% of its free-feeding weight. In the control group, rats are fed either DHA or magnesium citrate (Mg Citrate) supplemented diet on schedule similar to test group. After habituation to the apparatus and pre-training, each rat undergoes 4 trials of standard T-maze test (Shoji et al, J. Vis. Exp. (60), e3300, DOI: 10.3791/3300 (2012)) on day 1 or day 21 of Mg-DHA, Mg Citrate, or DHA feeding. Rats are subject to either forced alternation task or left-right discrimination task. Behaviors in the T-maze apparatus is recorded and statistically analyzed by two way repeated measures analysis of variance. […] In another set of experiments, rats fed with DHA, Mg Citrate, or Mg-DHA for 21 days are subject to novel-object-location (NOL) tests.
Mg-DHA composition is provided as supplement in standard rat feed. On an average, rats consume about 50 mg/Kg/day of elemental Mg, on a feeding schedule so as to maintain 85% of its free-feeding weight. In the control group, rats are fed DHA-LysoPC or Mg Citrate supplemented diet on schedule similar to test group. After habituation to the apparatus and pre-training, each rat undergoes 4 trials of standard T-maze test (Shoji et al, J. Vis. Exp. (60), e3300, DOI: 10.3791/3300 (2012)) on day 1 or day 21 of Mg-DHA-LysoPC, Mg Citrate or DHA-LysoPC feeding. Rats are subjected to either forced alternation task or left-right discrimination task. Behaviors in the T-maze apparatus is recorded and statistically analyzed by two way repeated measures analysis of variance. […] In another set of experiments, rats fed with Mg Citrate, DHA-LysoPC, or Mg-DHA-LysoPC for 21 days are subjected to novel-object-location (NOL) tests.
Mg-EPA composition is provided as supplement in standard rat feed. On an average, rats consume about 50 mg/Kg/day of elemental Mg, on a feeding schedule so as to maintain 85% of its free-feeding weight. In the control group, rats are fed EPA or Mg Citrate supplemented diet on scheduled similar to test group. After habituation to the apparatus and pre-training, each rat undergoes 4 trials of standard T-maze test (Shoji et al, J. Vis. Exp. (60), e3300, DOI: 10.3791/3300 (2012)) on day 1 or day 21 of Mg-EPA, Mg Citrate, or EPA feeding. Rats are subjected to either forced alternation task or left-right discrimination task. Behaviors in the T-maze apparatus is recorded and statistically analyzed by two way repeated measures analysis of variance. […]
Zn-DHA composition is provided as supplement in standard rat feed. […] Behaviors in the T-maze apparatus is recorded and statistically analyzed by two way repeated measures analysis of variance. […]

[1] = about 50 mg/kg/day elemental Mg, compared with the fatty acid alone or Mg Citrate
[2] = about 50 mg/Kg/day elemental Mg for 21 days, compared with the fatty acid alone or Mg Citrate
[3] = about 1 mg/kg body weight/day elemental zinc, compared with the fatty acid alone or zinc gluconate
[4] = about 1 mg/kg/day elemental Zn for 21 days, compared with the fatty acid alone or zinc gluconate

Row | SMILES | immobility time (Sprague-Dawley rats; [1]) | swimming and climbing behavior (Sprague-Dawley rats; [1]) | ability to recognize novel objects (rats; [2]) | immobility time (Sprague-Dawley rats; [3]) | swimming and climbing behavior (Sprague-Dawley rats; [3]) | ability to recognize novel objects (rats; [4])
1 | CC/C=C\C/C=C\C/C=C\C/C=C\C/C=C\C/C=C\CCC(=O)[O-].CC/C=C\C/C=C\C/C=C\C/C=C\C/C=C\C/C=C\CCC(=O)[O-].[Mg+2] [Mg-DHA] | reduction | significant increase | statistically significant improvement | – | – | –
2 | CC/C=C\C/C=C\C/C=C\C/C=C\C/C=C\CCCC(=O)[O-].CC/C=C\C/C=C\C/C=C\C/C=C\C/C=C\CCCC(=O)[O-].[Mg+2] [Mg-EPA] | reduction | significant increase | statistically significant improvement | – | – | –
3 | CC/C=C\C/C=C\C/C=C\C/C=C\C/C=C\C/C=C\CCC(=O)[O-].CC/C=C\C/C=C\C/C=C\C/C=C\C/C=C\C/C=C\CCC(=O)[O-].[Zn+2] [Zn-DHA] | – | – | – | reduction | significant increase | statistically significant improvement
4 | CC/C=C\C/C=C\C/C=C\C/C=C\C/C=C\CCCC(=O)[O-].CC/C=C\C/C=C\C/C=C\C/C=C\C/C=C\CCCC(=O)[O-].[Zn+2] [Zn-EPA] | – | – | – | reduction | significant increase | statistically significant improvement
